# Tested on: 186277-243-T-J2-PDC complex spheroid viability
# Experiment: Anticancer human tumor 186277-243-T-J2-PDC patient-derived colon adenocarcinoma cell line growth inhibition [GQUAD]
# Conditions: for IC50: curve of first compound; for viability, T/C: stronger effect = lower value
# In short: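 Multi-cell-type spheroids of tumor cells with HUVEC and mesenchymal stem cells, treated with drug combinations. Concentrations descend in half-log steps from near clinical Cmax, or from 10 microM where Cmax is unknown; viability read-out.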
# [1] = second compound 0.0316 µM, first compound 0.0316 µM
# [2] = second compound 0.0316 µM, first compound 0.1 µM
# [3] = second compound 0.0316 µM, first compound 0.316 µM
# [4] = second compound 0.0316 µM, first compound 1 µM
# [5] = second compound 0.0316 µM, first compound 3.16 µM
# [6] = second compound 0.0316 µM, first compound 10 µM
# [7] = second compound 0.1 µM, first compound 0.0316 µM
# [8] = second compound 0.1 µM, first compound 0.1 µM
# [9] = second compound 0.1 µM, first compound 0.316 µM
# [10] = second compound 0.1 µM, first compound 1 µM
# [11] = second compound 0.1 µM, first compound 3.16 µM
# [12] = second compound 0.1 µM, first compound 10 µM
# [13] = second compound 0.316 µM, first compound 0.0316 µM
# [14] = second compound 0.316 µM, first compound 0.1 µM
# [15] = second compound 0.316 µM, first compound 0.316 µM
# [16] = second compound 0.316 µM, first compound 1 µM
# [17] = second compound 0.316 µM, first compound 3.16 µM
# [18] = second compound 0.316 µM, first compound 10 µM
# [19] = second compound 1 µM, first compound 0.0316 µM
# [20] = second compound 1 µM, first compound 0.1 µM
# [21] = second compound 1 µM, first compound 0.316 µM
# [22] = second compound 1 µM, first compound 1 µM
# [23] = second compound 1 µM, first compound 3.16 µM
# [24] = second compound 1 µM, first compound 10 µM
# [25] = second compound 3.16 µM, first compound 0.0316 µM
# [26] = second compound 3.16 µM, first compound 0.1 µM
# [27] = second compound 3.16 µM, first compound 0.316 µM
# [28] = second compound 3.16 µM, first compound 1 µM
# [29] = second compound 3.16 µM, first compound 3.16 µM
# [30] = second compound 3.16 µM, first compound 10 µM
# [31] = second compound 10 µM, first compound 0.0316 µM
# [32] = second compound 10 µM, first compound 0.1 µM
# [33] = second compound 10 µM, first compound 0.316 µM
# [34] = second compound 10 µM, first compound 1 µM
# [35] = second compound 10 µM, first compound 3.16 µM
# [36] = second compound 10 µM, first compound 10 µM
# 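Also: spheroids exposed to drugs for 7 days.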
# 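For viability, T/C in this document: 100% = DMSO vehicle control viability.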
smiles,measurement,setting,value
C=CC(=O)N1CCN(c2nc(=O)n(-c3c(C)ccnc3C(C)C)c3nc(-c4c(O)cccc4F)c(F)cc23)C(C)C1 (stereo unspecified) + CN(C)c1ccc(Nc2c3ccc(NC(=O)CCN4CCCC4)cc3nc3cc(NC(=O)CCN4CCCC4)ccc23)cc1,IC50,second compound 0.0316 µM,> 10 µM
same,IC50,second compound 0.1 µM,> 10 µM
same,IC50,second compound 0.316 µM,> 10 µM
same,IC50,second compound 1 µM,> 10 µM
same,IC50,second compound 3.16 µM,> 10 µM
same,IC50,second compound 10 µM,> 10 µM
same,"viability, T/C",[1],105%
same,"viability, T/C",[2],85.5%
same,"viability, T/C",[3],90.1%
same,"viability, T/C",[4],81.7%
same,"viability, T/C",[5],104%
same,"viability, T/C",[6],96.6%
same,"viability, T/C",[7],111%
same,"viability, T/C",[8],96.1%
same,"viability, T/C",[9],101%
same,"viability, T/C",[10],71.9%
same,"viability, T/C",[11],111%
same,"viability, T/C",[12],88.3%
same,"viability, T/C",[13],104%
same,"viability, T/C",[14],94.6%
same,"viability, T/C",[15],87.3%
same,"viability, T/C",[16],90.5%
same,"viability, T/C",[17],92.6%
same,"viability, T/C",[18],95.2%
same,"viability, T/C",[19],93.9%
same,"viability, T/C",[20],89.8%
same,"viability, T/C",[21],88.4%
same,"viability, T/C",[22],101%
same,"viability, T/C",[23],105%
same,"viability, T/C",[24],97.3%
same,"viability, T/C",[25],95.3%
same,"viability, T/C",[26],87.2%
same,"viability, T/C",[27],97.6%
same,"viability, T/C",[28],89.8%
same,"viability, T/C",[29],101%
same,"viability, T/C",[30],95.3%
same,"viability, T/C",[31],91.7%
same,"viability, T/C",[32],80.2%
same,"viability, T/C",[33],98.4%
same,"viability, T/C",[34],96%
same,"viability, T/C",[35],111%
same,"viability, T/C",[36],88.1%
Cn1ncnc1[C@H]1c2n[nH]c(=O)c3cc(F)cc(c23)N[C@@H]1c1ccc(F)cc1 + CN(C)c1ccc(Nc2c3ccc(NC(=O)CCN4CCCC4)cc3nc3cc(NC(=O)CCN4CCCC4)ccc23)cc1,IC50,second compound 0.0316 µM,> 0.316 µM
same,IC50,second compound 0.1 µM,> 0.316 µM
same,IC50,second compound 0.316 µM,> 0.316 µM
same,IC50,second compound 1 µM,> 0.316 µM
same,IC50,second compound 3.16 µM,> 0.316 µM
same,IC50,second compound 10 µM,> 0.316 µM
same,"viability, T/C","second compound 0.0316 µM, first compound 0.000999 µM",91.8%
same,"viability, T/C","second compound 0.0316 µM, first compound 0.00316 µM",104%
same,"viability, T/C","second compound 0.0316 µM, first compound 0.00999 µM",108%
same,"viability, T/C",[1],80.6%
same,"viability, T/C","second compound 0.0316 µM, first compound 0.0999 µM",86.6%
same,"viability, T/C",[3],76.8%
same,"viability, T/C","second compound 0.1 µM, first compound 0.000999 µM",108%
same,"viability, T/C","second compound 0.1 µM, first compound 0.00316 µM",113%
same,"viability, T/C","second compound 0.1 µM, first compound 0.00999 µM",96.2%
same,"viability, T/C",[7],114%
same,"viability, T/C","second compound 0.1 µM, first compound 0.0999 µM",90.2%
same,"viability, T/C",[9],82%
same,"viability, T/C","second compound 0.316 µM, first compound 0.000999 µM",83.8%
same,"viability, T/C","second compound 0.316 µM, first compound 0.00316 µM",108%
same,"viability, T/C","second compound 0.316 µM, first compound 0.00999 µM",102%
same,"viability, T/C",[13],115%
same,"viability, T/C","second compound 0.316 µM, first compound 0.0999 µM",92.1%
same,"viability, T/C",[15],86.8%
same,"viability, T/C","second compound 1 µM, first compound 0.000999 µM",105%
same,"viability, T/C","second compound 1 µM, first compound 0.00316 µM",91.8%
same,"viability, T/C","second compound 1 µM, first compound 0.00999 µM",97.6%
same,"viability, T/C",[19],106%
same,"viability, T/C","second compound 1 µM, first compound 0.0999 µM",85.6%
same,"viability, T/C",[21],85%
same,"viability, T/C","second compound 3.16 µM, first compound 0.000999 µM",101%
same,"viability, T/C","second compound 3.16 µM, first compound 0.00316 µM",94.7%
same,"viability, T/C","second compound 3.16 µM, first compound 0.00999 µM",107%
same,"viability, T/C",[25],94%
same,"viability, T/C","second compound 3.16 µM, first compound 0.0999 µM",85.5%
same,"viability, T/C",[27],94.6%
same,"viability, T/C","second compound 10 µM, first compound 0.000999 µM",114%
same,"viability, T/C","second compound 10 µM, first compound 0.00316 µM",92.3%
same,"viability, T/C","second compound 10 µM, first compound 0.00999 µM",99.2%
same,"viability, T/C",[31],106%
same,"viability, T/C","second compound 10 µM, first compound 0.0999 µM",83.6%
same,"viability, T/C",[33],82%
O=C(c1cc(Cc2n[nH]c(=O)c3ccccc23)ccc1F)N1CCN(C(=O)C2CC2)CC1 + CN(C)c1ccc(Nc2c3ccc(NC(=O)CCN4CCCC4)cc3nc3cc(NC(=O)CCN4CCCC4)ccc23)cc1,IC50,second compound 0.0316 µM,> 10 µM
same,IC50,second compound 0.1 µM,> 10 µM
same,IC50,second compound 0.316 µM,> 10 µM
same,IC50,second compound 1 µM,> 10 µM
same,IC50,second compound 3.16 µM,> 10 µM
same,IC50,second compound 10 µM,> 10 µM
same,"viability, T/C",[1],116%
same,"viability, T/C",[2],122%
same,"viability, T/C",[3],115%
same,"viability, T/C",[4],93.5%
same,"viability, T/C",[5],81.8%
same,"viability, T/C",[6],70.2%
same,"viability, T/C",[7],117%
same,"viability, T/C",[8],118%
same,"viability, T/C",[9],115%
same,"viability, T/C",[10],99%
same,"viability, T/C",[11],103%
same,"viability, T/C",[12],53.5%
same,"viability, T/C",[13],97.7%
same,"viability, T/C",[14],111%
same,"viability, T/C",[15],102%
same,"viability, T/C",[16],95.1%
same,"viability, T/C",[17],111%
same,"viability, T/C",[18],63.4%
same,"viability, T/C",[19],98.2%
same,"viability, T/C",[20],100%
same,"viability, T/C",[21],105%
same,"viability, T/C",[22],110%
same,"viability, T/C",[23],89.9%
same,"viability, T/C",[24],75.9%
same,"viability, T/C",[25],90.4%
same,"viability, T/C",[26],109%
same,"viability, T/C",[27],95.3%
same,"viability, T/C",[28],100%
same,"viability, T/C",[29],78.7%
same,"viability, T/C",[30],64.5%
same,"viability, T/C",[31],105%
same,"viability, T/C",[32],116%
same,"viability, T/C",[33],120%
same,"viability, T/C",[34],111%
same,"viability, T/C",[35],95.9%
same,"viability, T/C",[36],54.9%

# Source: PubChem BioAssay AID2060512 (Molecular Pharmacology Branch, DTP, NCI, 2025)
